The structures appear in SMILES notation. Where a name gives a salt, the structure may show the parent alone.

One may read the solubility as the dissolved amount per volume that the medium holds. What is called LD50 is the dose expected to kill half of the subjects tested. A lower LD50 goes with greater toxicity.

Series [1] has as its system effects caused by Tremorin. The series can be described thus: Central and peripheral anticholinergic activity in mouse after administration of Tremorin. For Miosis: key: +: Presence of the effect (ptyalism, miosis, tremors); -: Lack of the effect (ptyalism, miosis, tremors). For Ptyalism: key: +: Presence of the effect (ptyalism, miosis, tremors); -: Lack of the effect (ptyalism, miosis, tremors). For Tremors: key: +: Presence of the effect (ptyalism, miosis, tremors); -: Lack of the effect (ptyalism, miosis, tremors). In kind it is in vivo, mouse (Swiss male). As to conditions: for Tremors / Miosis / Ptyalism: Tremorin 25 mg/kg i.p.; for Tremors: central activity; for Miosis / Ptyalism: peripheral activity; for antagonism of the effects of Tremorin / anticholinergic side effects: result in words, hydrochloride. The procedure:
(§1) In order to evaluate the possible undesirable collateral systemic effects, tests of central and peripheral anticholinergic activity were carried out by using two animal species, mouse and rat.
In the first series of tests Swiss male mice averaging 25 g were used which were subdivided in three groups of 8 animals. […] The third, control group was given an equal volume of saline.
In watching the effects caused by Tremorin during the development of its action, beside the time for the appearance of tremors as an index of the central activity, further parameters such as ptyalism and miosis were contemplated as indexes of peripheral activity.

The next series in a line: Solubility. In kind it is physicochemical. As to conditions: saline; read-out: maximum dose consistent with the total solubility in saline.
Series [2] deals with acetylcholine-induced chromodacryorrhea. The series can be described thus: Anticholinergic activity on chromodacryorrhea from acetylcholine. In kind it is in vivo, rat (male Wistar). The procedure: as §1
Another series of experiments was carried out on male Wistar rats averaging 150 g in order to point out the anticholinergic activity at the glandular level.
A first control group consisting of six animals was subcutaneously injected with 160 mcg of acetylcholine.

The test system of a further series is small intestine. The series can be described thus: Effect on the intestinal progress of opaque meal in rat. The format is in vivo, rat (Male Wistar). The conditions noted are these: for Progress %: 40 minutes after opaque meal, mean of ten ± standard error, controls 81.76 ± 2.33. The procedure: Male Wistar rats weighing 150-180 g were employed subdivided in groups of ten subjects, which were maintained fasting for 18 hours before the test.
Two administration ways were considered: oral and intraperitoneal.
In the first set of tests to every group of animals each compound was orally administered in the form of an aqueous solution or suspension in gum-arabic (10% in water) 40 minutes before an opaque meal consisting of a suspension of 5% vegetable charcoal in gum-arabic (20% in water).
The animals were killed by cranial injury 40 minutes after the oral administration of the opaque meal and the small intestine was drawn. To the control group an equal volume of saline was administered in the same administration way. The second set of tests was carried out by administering intraperitoneally the compounds 30 minutes before the opaque meal. The animals were killed 40 minutes after the swallowing of the alimentary bolus and the small intestine was drawn; to the control group an equal volume of saline was injected. The total length of small intestine and the progress of opaque meal were measured in each killed animal.

Series [3] relates to carbachol-stimulated intestinal motility. The series can be described thus: Effect on intestinal progress in rats after excitation with carbachol. As to conditions: 40 mg/kg i.p.; carbachol 30 mcg/kg i.p.; mean of ten ± standard errors; non-stimulated controls 55.7 ± 2.23, stimulated controls 77.95 ± 1.72. The format is in vivo, rat. The procedure: Subsequently a further series of tests were carried out in order to evaluate the capability of some examined compounds in hindering the stimulating action on intestinal motility of a dose of carbachol at the concentration of 30 mcg/kg when intraperitoneally administered. Carbachol or carbamylcholine chloride is a known substance endowed with parasympathomimetic action.
The control group was given an equal volume of saline.
The survey of the data as given in tables 6 was carried out as previously described by considering the percent intestinal progress of opaque meal with respect to the total length of small intestine.

Series [4] concerns rabbit ileum. The series can be described thus: BaCl2-induced contraction on isolated rabbit ileum. The conditions noted are these: Oryctolagus cuniculus; 50% reduction of the BaCl2-induced contraction; BaCl2 50 mcg/ml; read-out: CI50 (the source's name). The text has this: The activity of same compounds in antagonizing the spasm as caused by BaCl2 introduced in the bath at a concentration of 50 mcg/ml one minute before each test was studied. Also for this preparation a comparison with papaverine was at last carried out.

For series [5], the system named is guinea pig ileum. The series can be described thus: BaCl2-induced contraction on guinea pig ileum in vitro. On the set-up: species or system guinea pig (Whitish female). The procedure: (§2) On the guinea pig ileum, which has a minimum intrinsic motility but a remarkable sensibility to agents causing a contracture or a relaxation of the intestinal smooth muscular system, it was possible to further evaluate the spasmolytic activity of the examined substances. As spasmogenic agents acetylcholine and BaCl2 were used which were respectively added to the bath at final concentrations of 0.1 mcg/ml and 50 mcg/ml.
(§3) Ten preparations of guinea pig ileum for each compound were prepared, yet maintaining the same dose range which was used on rabbit ileum.
(§4) The contractions were measured by means of an isotonic transducer connected with a microdynamometer. Each preparation was left dipped for about 30 minutes up to reach the equilibrium.
(§5) After this time, the single doses of each substance to be examined were introduced three minutes before the spasmogenic substance which was contacted with the preparation for 1 minute. Before the subsequent dose of drug was introduced, the tested organ was allowed to recover the basal conditions and this was ascertained by using the only spasmogenic substance. The process was repeated for all the other concentrations. Afterwards the comparison with the reference spasmolytic substance having a known activity, namely papaverine, was carried out yet working in the same conditions and according to the same procedure.

For series [6], the system named is rabbit ileum. The series can be described thus: Spontaneous motility in vitro of rabbit ileum. On the set-up: species or system rabbit (New Zealand male). The conditions noted are these: Oryctolagus cuniculus; 50% reduction of amplitude of the basal contraction; Tyrode, 37° C.; read-out: CI50 (the source's name). The procedure: The spontaneous motility of the preparations was measured by a isotonic transducer connected with a microdynamometer. Each preparation was previously left dipped for about one hour in the solution up to reach the osmotic equilibrium.
After this time the single compounds were poured in the bath in gradual doses up to notice the quite total disappearance of spontaneous activity in the organ. For sake of comparison parallel tests with papaverine were carried out.

The test system of series [7] is guinea pig ileum. The series can be described thus: Acetylcholine-induced contraction on guinea pig ileum in vitro. On the set-up: species or system guinea pig (Whitish female). The procedure:
as §2, §3, §4, §5

Series [8] is described as follows: Acute toxicity (DL50) in mouse. In kind it is in vivo. As to conditions: mouse, in vivo. The procedure:
(§6) The determination of the lethal dose to 50% of the animals which were treated with the examined substances was obtained by using male Swiss mice averaging 22 g and by considering two administration ways: oral and intraperitoneal.
(§7) Groups of six animals of each dose were prepared which were kept under observation for 7 days and fasting since the evening before the experience.
(§8) During the observation period possible and clear changes in activity and behaviour were controlled by using the Irwin test: a behavioural outline of the treated animals was obtained with respect to other subjects which received reference drugs.
(§9) The calculation of acute toxicity was carried out by using the Litchfield and Wilcoxon procedure (J. Pharmac. Exp. Ther. 96, 99, 1949).
(§10) The acute toxicity values in mg/kg are given in table 9 in the form of average values with the relevant fiducial limits in comparison with papaverine.

Another series concerns mouse. The series can be described thus: Acute toxicity (DL50) in mouse. The conditions noted are these: result in words; orally and intraperitoneally. In kind it is in vivo. The procedure: as §6, §7, §8, §9, §10

On to `c1ccc(C(CCNc2ccccn2)c2ccccc2)cc1` [N-(2'-pyridyl)-3,3-diphenylpropylamine hydrochloride], for which the Tremors result in series [1] (50 mg/kg i.p.) and in [1] (100 mg/kg i.p.) was “+” throughout. In addition, the Miosis entry in series [1] (50 mg/kg i.p.) and in series [1] (100 mg/kg i.p.) was “+” throughout. In addition, the Ptyalism result in [1] (50 mg/kg i.p.) and in series [1] (100 mg/kg i.p.) was “+” each time. The “antagonism of the effects of Tremorin / anticholinergic side effects” value is “does not antagonize the ffects of Tremorin neither at a central level nor at a peripheral level” in series [1] (listed as N-(2'-pyridyl)-3,3-diphenyl-propylamine hydrochloride) and “does not show anticholinergic side effects at a central level also at high doses” in series [1] (listed as N-(2'-pyridyl)-3,3-diphenylpropylamine hydrochloride). Further, the solubility in “Solubility” came to 1000 µg/mL. Besides, in series [2] (50 mg/kg i.p., acetylcholine 160 mcg s.c.), the Chromodacryorrhea entry is recorded as “+”. In series [2] (50 mg/kg, result in words), the “effect on acetylcholine-induced chromodacryorrhea” value is “do not modify the acetylcholine-induced chromodacryorrhea”. In addition, the Progress % with small intestine (20 mg/kg i.p.) is on record as 62.10 ± 2.54%; with small intestine (50 mg/kg os) it was 67.65 ± 2.54%; in series [3], 42.25 ± 3.34%. Besides, the “reducing the progress of an opaque meal” value with small intestine (oral and intraperitoneal, result in words) is “the most active compound in reducing the progress of an opaque meal in both of the considered administration ways”. Moreover, the IC50 in the series with rabbit ileum [4] was 14 µM; with guinea pig ileum [5] (Cavia porcellus, BaCl2 50 mcg/ml, Tyrode, 37° C., 3 minutes before spasmogen, read-out: CI50 (the source's name)) it was 5.6 µM; in the series on rabbit ileum [6] it was 13 µM; in the series on guinea pig ileum [7] (Cavia porcellus, acetylcholine 0.1 mcg/ml, Tyrode, 37° C., 3 minutes before spasmogen, read-out: CI50 (the source's name)) it was 11 µM. Moreover, the “BaCl2-induced contraction on guinea pig ileum” value in the series on guinea pig ileum [5] (result in words) is “more active than papaverine”. Moreover, the “acetylcholine-induced contraction on guinea pig ileum” value in the series with guinea pig ileum [7] (result in words) was “also effective on the acetylcholine-induced contraction”. Also, the values for the LD50 at 168 h in series [8] (ip) and in series [8] (po) were 360 mg/kg and greater than 1500 mg/kg, respectively. Further, the acute toxicity result in the series with mouse is “The less toxic compound”.
